Test results: patent US20240124465A1, “MOLECULES AND METHODS RELATED TO TREATMENT OF DISORDERS ASSOCIATED WITH JAK-2 SIGNALING DYSFUNCTION” (ST. JUDE CHILDREN'S RESEARCH HOSPITAL, priority 2020, published 2024)

Experiments:
Assay type in all cases: cell-based
MHH-CALL-4 cells = test: Cytotoxicity assay (resazurin, 72 hours); design: AUC: unit not given beside the values; settings: for EC50: MHHCALL4, resazurin; for AUC: area under the dose-response curve
Protocol: Cytotoxicity assay: MHH-CALL-4 cells were maintained in RPMI1640 medium (Invitrogen) supplemented with 10% FBS (Hyclone), Penicillin/Streptomycin (100 units/mL) and Glutamine (100 μM). 2×10^5 cells were seeded in 100 μl medium/well in 96 well assay plates (Corning 3603). Assays were performed in triplicate; compounds to be screened were added to assay plates from DMSO stock solutions by pin transfer using 50SS pins (V&P Scientific). The assay plates incubated at 37° C. in 5% CO2 for 72 hours. Cells were then incubated for four hours with resazurin (Sigma) solution and read on a Synergy HT plate reader (Biotek, Winooski, VT). High-throughput assay data was analyzed using our in-house Robust Interpretation of Screening Experiments (RISE) application written in Pipeline Pilot (Biovia, v. 17.2.0) and the R program (R Core Team, 2013). All the AUC (area under the dose-response curve) per compound calculated from its dose response curve by RISE protocol. Selected data were plotted and analyzed by GraphPad Prism software v7 using non-linear regression curve fitting.

JAK1 = target: T1, JAK1 (Homo sapiens, UniProt P23458); test: Western blot assay, JAK1 protein degradation; settings: MHH-CALL-4 cells, vehicle control = 100%
T1 construct: endogenous in cells; host or cells: MHH-CALL-4
Protocol: (§1) Western blot assay: MHH-CALL-4 Cells were washed twice with ice-cold PBS and lysed in RIPA lysis buffer (Sigma) freshly supplemented with Halt™ Protease Inhibitor Cocktail (ThermoFisher) for 15 minutes on ice. The cell pellet was removed by centrifugation at 13,000 g at 4° C. for 15 minutes. Protein concentration was measured by BCA assay (Thermo Fisher Scientific). Proteins were denatured in NuPAGE LDS 4× sample buffer supplemented with reducing agents (Invitrogen). Typically, 10-20 μg of total protein was loaded per lane on a 4%-12% NUPAGE Bis-Tris gradient gel (Invitrogen) and analyzed by standard immunoblotting and imaged using Li—COR Odyssey CLx (LI-COR Biotechnology, Lincoln, NE). To access the protein degradation, the signal of target protein was normalized by the signal of ACBT and the signal of vehicle control was set as 100%. Primary antibodies used were: JAK1 (Cell Signaling #3332S), JAK2 (#3230S), JAK3 (#8827S), TYK2 (#9312S), GSPT1 (#14980S), CRBN (#71810S), IKZF1 (Santa Cruz Biotechnology, SC-398265) and ACBT (Santa Cruz Biotechnology, SC-47778).

JAK2 = test: Western blot assay, JAK2 protein degradation; settings: MHH-CALL-4 cells, vehicle control = 100%
Protocol: as §1

JAK3 = target: T2, JAK3 (Homo sapiens, UniProt P52333); test: Western blot assay, JAK3 protein degradation; settings: MHHCALL4; 100 nM, 24 h; MHH-CALL-4 cells; vehicle control = 100%; read-out: Target Protein Degradation (% remaining at 100 nM, 24 h) JAK3
T2 construct: endogenous in cells; host or cells: MHH-CALL-4
T2 sequence (P52333 1-1124): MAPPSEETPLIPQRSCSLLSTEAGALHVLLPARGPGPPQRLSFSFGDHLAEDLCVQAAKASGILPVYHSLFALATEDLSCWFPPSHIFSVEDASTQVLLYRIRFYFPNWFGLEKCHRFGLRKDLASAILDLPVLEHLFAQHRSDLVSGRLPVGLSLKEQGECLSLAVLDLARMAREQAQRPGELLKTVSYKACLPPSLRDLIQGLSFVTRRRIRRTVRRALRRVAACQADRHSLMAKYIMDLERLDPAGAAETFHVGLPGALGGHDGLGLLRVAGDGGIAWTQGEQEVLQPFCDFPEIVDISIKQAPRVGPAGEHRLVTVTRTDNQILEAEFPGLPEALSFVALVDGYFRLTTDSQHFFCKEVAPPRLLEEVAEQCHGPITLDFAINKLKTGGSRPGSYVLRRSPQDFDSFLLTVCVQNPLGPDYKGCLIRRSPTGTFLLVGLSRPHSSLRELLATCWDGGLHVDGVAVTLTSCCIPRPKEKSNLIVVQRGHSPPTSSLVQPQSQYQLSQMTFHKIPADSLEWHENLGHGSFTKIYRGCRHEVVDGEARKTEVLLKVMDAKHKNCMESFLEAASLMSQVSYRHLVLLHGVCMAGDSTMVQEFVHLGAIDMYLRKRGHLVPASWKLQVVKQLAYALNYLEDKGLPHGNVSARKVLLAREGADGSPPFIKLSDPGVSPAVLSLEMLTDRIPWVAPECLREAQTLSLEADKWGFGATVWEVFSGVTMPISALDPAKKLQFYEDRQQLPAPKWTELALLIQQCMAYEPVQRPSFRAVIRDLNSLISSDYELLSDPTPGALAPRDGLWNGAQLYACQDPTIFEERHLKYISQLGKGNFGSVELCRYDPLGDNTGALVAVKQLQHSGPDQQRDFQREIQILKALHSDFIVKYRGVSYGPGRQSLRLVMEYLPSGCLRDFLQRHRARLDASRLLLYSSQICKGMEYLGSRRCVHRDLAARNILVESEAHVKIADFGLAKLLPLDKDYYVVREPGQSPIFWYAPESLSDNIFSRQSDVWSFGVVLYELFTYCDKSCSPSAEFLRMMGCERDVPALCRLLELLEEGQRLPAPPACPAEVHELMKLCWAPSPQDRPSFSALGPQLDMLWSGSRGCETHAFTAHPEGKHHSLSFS
Protocol: as §1

GSPT1 = target: T3, GSPT1 (Homo sapiens, UniProt P15170); test: Western blot assay, GSPT1 neosubstrate degradation; settings: MHHCALL4; 100 nM, 24 h; MHH-CALL-4 cells; vehicle control = 100%
T3 construct: endogenous in cells; host or cells: MHH-CALL-4
Protocol: as §1

T3 sequence (P15170 whole entry): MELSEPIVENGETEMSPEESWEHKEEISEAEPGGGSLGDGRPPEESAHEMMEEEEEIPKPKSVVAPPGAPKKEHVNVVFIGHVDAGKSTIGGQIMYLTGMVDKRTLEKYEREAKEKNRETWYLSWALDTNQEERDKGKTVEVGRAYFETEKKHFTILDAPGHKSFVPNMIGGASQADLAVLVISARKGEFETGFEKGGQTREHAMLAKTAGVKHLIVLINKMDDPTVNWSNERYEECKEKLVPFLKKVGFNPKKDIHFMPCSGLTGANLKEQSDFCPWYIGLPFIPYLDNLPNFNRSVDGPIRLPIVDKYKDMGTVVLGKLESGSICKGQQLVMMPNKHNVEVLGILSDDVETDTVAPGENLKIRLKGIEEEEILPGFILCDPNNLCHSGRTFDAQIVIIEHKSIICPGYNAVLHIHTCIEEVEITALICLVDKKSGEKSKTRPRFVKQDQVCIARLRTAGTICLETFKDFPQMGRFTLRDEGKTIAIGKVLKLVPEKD
T1 sequence (P23458 whole entry): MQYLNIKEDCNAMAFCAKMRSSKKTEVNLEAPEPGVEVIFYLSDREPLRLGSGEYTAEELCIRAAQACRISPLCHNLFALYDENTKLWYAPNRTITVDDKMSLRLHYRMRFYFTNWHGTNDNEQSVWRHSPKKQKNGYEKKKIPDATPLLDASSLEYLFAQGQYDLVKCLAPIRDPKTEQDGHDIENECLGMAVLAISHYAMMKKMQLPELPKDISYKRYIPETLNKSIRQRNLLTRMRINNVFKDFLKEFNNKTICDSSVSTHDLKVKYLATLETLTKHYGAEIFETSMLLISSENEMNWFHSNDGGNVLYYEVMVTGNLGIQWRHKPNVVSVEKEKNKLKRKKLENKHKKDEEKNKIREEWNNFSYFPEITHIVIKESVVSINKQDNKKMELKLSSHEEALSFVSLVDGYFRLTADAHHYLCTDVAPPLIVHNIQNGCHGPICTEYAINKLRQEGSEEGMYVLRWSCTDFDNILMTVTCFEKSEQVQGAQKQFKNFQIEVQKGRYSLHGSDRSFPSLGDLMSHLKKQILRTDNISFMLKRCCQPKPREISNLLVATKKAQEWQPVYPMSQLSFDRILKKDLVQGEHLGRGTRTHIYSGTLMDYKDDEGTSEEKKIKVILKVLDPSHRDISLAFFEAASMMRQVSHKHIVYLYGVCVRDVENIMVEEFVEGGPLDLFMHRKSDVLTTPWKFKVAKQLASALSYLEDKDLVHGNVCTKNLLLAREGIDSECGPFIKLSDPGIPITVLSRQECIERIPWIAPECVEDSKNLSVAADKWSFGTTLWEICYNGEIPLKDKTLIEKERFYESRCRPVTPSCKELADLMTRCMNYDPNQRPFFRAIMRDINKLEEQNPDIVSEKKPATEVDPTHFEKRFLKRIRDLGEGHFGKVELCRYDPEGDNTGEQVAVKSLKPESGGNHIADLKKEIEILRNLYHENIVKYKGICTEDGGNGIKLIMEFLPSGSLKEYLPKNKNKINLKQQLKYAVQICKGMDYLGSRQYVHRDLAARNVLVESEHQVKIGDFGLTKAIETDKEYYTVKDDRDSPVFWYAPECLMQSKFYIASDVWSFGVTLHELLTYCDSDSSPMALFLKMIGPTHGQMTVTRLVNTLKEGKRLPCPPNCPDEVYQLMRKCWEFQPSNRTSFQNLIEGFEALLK

| Structure (SMILES) | Target Protein Degradation (% remaining at 100 nM, 24 h) JAK1 (JAK1) [% remaining] | remaining activity at 0.1 µM (JAK3) [%] | remaining activity at 0.1 µM (GSPT1) [%] | EC50 (MHH-CALL-4 cells) [nM] | AUC (MHH-CALL-4 cells) | Target Protein Degradation (% remaining at 100 nM, 24 h) JAK2 (JAK2) [% remaining] |
| --- | --- | --- | --- | --- | --- | --- |
| CCS(=O)(=O)N1CC(CC#N)(n2cc(-c3nc(Nc4ccc(C(=O)NCCCCCCNc5ccc(C6CCC(=O)NC6=O)cc5)cc4)nc4[nH]ccc34)cn2)C1 (stereo not drawn) [Compound 1] | 128 | 37 | 84 | 0.8 | 231 | 34 |
| CCS(=O)(=O)N1CC(CC#N)(n2cc(-c3nc(Nc4ccc(C(=O)NCCOCCOc5ccc(C6CCC(=O)NC6=O)cc5)cc4)nc4[nH]ccc34)cn2)C1 (stereo not drawn) [Compound 11] | 110 | 70 | 130 | > 10000 |  | 90 |
| N#CC[C@H](C1CCCC1)n1cc(-c2nc(Nc3ccc(C(=O)NCCCN4CCN(c5ccc(C6CCC(=O)NC6=O)cc5)CC4)cc3)nc3[nH]ccc23)cn1 (stereo partly drawn) [Compound 38, 4-((4-(1-((R)-2-cyano-1-cyclopentylethyl)-1H-pyrazol-4-yl)-7H-pyrrolo[2,3-d]pyrimidin-2-yl)amino)-N-(3-(4-(4-(2,6-dioxopiperidin-3-yl)phenyl)piperazin-1-yl)propyl)benzamide] |  | 41 | 99 | 2.6 | 122 | 48 |
| CCCn1cc(-c2nc(Nc3ccc(C(=O)NCCCCOc4ccc(C5CCC(=O)NC5=O)cc4)cc3)nc3[nH]ccc23)cn1 (stereo not drawn) [Compound 43, N-(4-(4-(2,6-dioxopiperidin-3-yl)phenoxy)butyl)-4-((4-(1-propyl-1H-pyrazol-4-yl)-7H-pyrrolo[2,3-d]pyrimidin-2-yl)amino)benzamide] | 123 | 79 | 37 |  |  | 76 |
| CCCn1cc(-c2nc(Nc3ccc(C(=O)NCCCN4CCN(c5ccc(C6CCC(=O)NC6=O)cc5)CC4)cc3)nc3[nH]ccc23)cn1 (stereo not drawn) [Compound 44, N-(3-(4-(4-(2,6-dioxopiperidin-3-yl)phenyl)piperazin-1-yl)propyl)-4-((4-(1-propyl-JH-pyrazol-4-yl)-7H-pyrrolo[2,3-d]pyrimidin-2-yl)amino)benzamide] | 104 | 74 | 81 |  |  | 64 |

Now from value to compound, other results behind:

| Target Protein Degradation (% remaining at 100 nM, 24 h) JAK1 (JAK1) [% remaining] | remaining activity at 0.1 µM (JAK3) [%] | remaining activity at 0.1 µM (GSPT1) [%] | Structure (SMILES) | EC50 (MHH-CALL-4 cells) [nM] | AUC (MHH-CALL-4 cells) | Target Protein Degradation (% remaining at 100 nM, 24 h) JAK2 (JAK2) [% remaining] |
| --- | --- | --- | --- | --- | --- | --- |
| 94 | 79 | 84 | CCS(=O)(=O)N1CC(CC#N)(n2cc(-c3nc(Nc4ccc(C(=O)NCCCCCCNc5cccc(C6CCC(=O)NC6=O)c5)cc4)nc4[nH]ccc34)cn2)C1 (stereo not drawn) [Compound 3] | 1.7 | 248 | 56 |
| 17 | 44 | 124 | CCS(=O)(=O)N1CC(CC#N)(n2cc(-c3nc(Nc4ccc(C(=O)NCCCCNc5cccc(C6CCC(=O)NC6=O)c5)cc4)nc4[nH]ccc34)cn2)C1 (stereo not drawn) [Compound 4] | 2.1 | 120 | 30 |
| 44 | 54 |  | CCS(=O)(=O)N1CC(CC#N)(n2cc(-c3nc(Nc4ccc(C(=O)NCCCCCNc5cccc(C6CCC(=O)NC6=O)c5)cc4)nc4[nH]ccc34)cn2)C1 (stereo not drawn) [Compound 6] | 5.9 | 136 | 37 |
| 78 | 50 | 63 | CCS(=O)(=O)N1CC(CC#N)(n2cc(-c3nc(Nc4ccc(C(=O)NCCCCCNc5ccc(C6CCC(=O)NC6=O)cc5)cc4)nc4[nH]ccc34)cn2)C1 (stereo not drawn) [Compound 7] | 13.9 | 248 | 29 |
| 87 | 112 | 129 | CCS(=O)(=O)N1CC(CC#N)(n2cc(-c3nc(Nc4ccc(C(=O)NCCCCN5CCN(c6ccc(C7CCC(=O)NC7=O)cc6)CC5)cc4)nc4[nH]ccc34)cn2)C1 (stereo not drawn) [Compound 19] | 1450 | 225 | 34 |
| 138 | 102 | 128 | CCS(=O)(=O)N1CC(CC#N)(n2cc(-c3nc(Nc4ccc(C(=O)NCCCCN5CCN(c6ccc7c(c6)C(=O)N(C6CCC(=O)NC6=O)C7=O)CC5)cc4)nc4[nH]ccc34)cn2)C1 (stereo not drawn) [Compound 20] | 13.6 | 123 | 40 |
| 72 | 61 | 103 | N#CC[C@H](C1CCCC1)n1cc(-c2nc(Nc3ccc(C(=O)NCCN4CCN(c5ccc6c(c5)C(=O)N(C5CCC(=O)NC5=O)C6=O)CC4)cc3)nc3[nH]ccc23)cn1 (stereo partly drawn) [Compound 22] | 18.1 | 141 | 36 |
| 107 | 29 | 101 | CCS(=O)(=O)N1CC(CC#N)(n2cc(-c3nc(Nc4ccc(C(=O)NCC5CCN(c6ccc(C7CCC(=O)NC7=O)cc6)CC5)cc4)nc4[nH]ccc34)cn2)C1 (stereo not drawn) [Compound 45, 4-((4-(1-(3-(cyanomethyl)-1-(ethylsulfonyl)azetidin-3-yl)-1H-pyrazol-4-yl)-7H-pyrrolo[2,3-d]pyrimidin-2-yl)amino)-N-((1-(4-(2,6-dioxopiperidin-3-yl)phenyl)piperidin-4-yl)methyl)benzamide] |  |  | 21 |
